These results are taken from patent US20210300936A1, “PYRAZOLOTRIAZOLOPYRIMIDINE DERIVATIVES AS A2A RECEPTOR ANTAGONIST” (BEIGENE, LTD., priority 2018, published 2021).

Assay [1] addresses human A2A receptor (A2AR) (Homo sapiens, UniProt P29274). In words: Luciferase reporter assay (HEK293-A2AR-luc2p/CRE/Hygro cells, 3 nM CGS21680). In kind it is cell-based. To be noted: 3 nM CGS21680, 5 h incubation. A digest of the protocol: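 HEK293 cells stably expressing A2AR with a CRE-luc2P reporter were seeded in 1% FBS with 1 U/mL adenosine deaminase. After 18 h, cells got 3 nM CGS21680 plus antagonist at 0.1–10000 nM for 5 h, followed by a luciferase readout. IC50 is relative to the 3 nM CGS21680 signal, set as 100%.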
(In general: A reporter such as luciferase makes a cellular process visible.)

The target in assay [2] is T1, human adenosine receptor A1 (A1R) (Homo sapiens, UniProt P30542).
T1 construct: host or cells: CHO cells (membrane homogenates)
T1 sequence (P30542 1-326): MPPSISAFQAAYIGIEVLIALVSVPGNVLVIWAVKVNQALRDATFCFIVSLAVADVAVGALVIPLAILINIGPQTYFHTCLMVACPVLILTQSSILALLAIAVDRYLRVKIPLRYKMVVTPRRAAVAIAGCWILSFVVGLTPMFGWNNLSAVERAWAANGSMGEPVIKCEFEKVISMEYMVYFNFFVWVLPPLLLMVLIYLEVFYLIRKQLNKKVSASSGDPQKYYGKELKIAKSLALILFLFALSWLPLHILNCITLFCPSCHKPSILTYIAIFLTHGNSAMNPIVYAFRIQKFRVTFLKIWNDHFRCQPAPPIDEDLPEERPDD
Briefly: Adenosine receptor binding assay, radioligand competitive binding, [3H]DPCPX. The note with it: membrane homogenates from CHO cells transfected with A1R, 1 nM [3H]DPCPX. As to the method:
(§1) Binding affinity of test compounds to four human adenosine receptors, A1, A2A, A2B and A3 was determined in radioligand competitive binding assay (conducted by Cerep, France) using following protocols. For A1 receptor (A1R), membrane homogenates from CHO cells transfected with A1R were incubated for 60 min at 22° C. with 1 nM [3H]DPCPX in the absence or presence of the test compound in a buffer containing 50 mM Tris-HCl (pH 7.4), 5 mM MgCl2, 1 mM EDTA/Tris and 2 UI/mL ADA. For A2AR, membrane homogenates from HEK293 cells transfected with A2AR were incubated for 120 min at 22° C. with 6 nM [3H]CGS21680 in the absence or presence of the test compound in a buffer containing 50 mM Tris-HCl (pH 7.4), 10 mM MgCl2, and 2 UI/mL ADA. For A2B receptor (A2BR), membrane homogenates from HEK293 cells transfected with A2BR were incubated for 60 min at 22° C. with 5 nM [3H]CPX in the absence or presence of the test compound in a buffer containing 10 mM Hepes/Tris (pH 7), 1 mM MgCl2, and 1 mM EDTA. For A3 receptor (A3R), membrane homogenates from HEK293 cells transfected with A3R were incubated for 120 min at 22° C. with 0.15 nM [125I]AB-MECA in the absence or presence of the test compound in a buffer containing 50 mM Tris-HCl (pH 7.4), 5 mM MgCl2, 1 mM EDTA and 2 UI/mL ADA. Nonspecific binding was determined in the presence of unlabeled 1 μM DPCPX, 10 μM NECA, 100 μM NECA, and 1 μM IB-MECA in A1R, A2AR, A2BR, A3R binding assays, respectively. Following incubation, the samples are rapidly filtered and washed with ice-cold 50 mM Tris-HCl. Then filters are dried and counted for radioactivity in a scintillation counter (Topcount, Packard) using a scintillation cocktail (Microscint 0, Packard). Duplicate experiments were performed for each assay. The results are expressed as a percent inhibition of control radioligand specific binding.

The target in assay [3] is T2, human adenosine receptor A2A (A2AR) (Homo sapiens, UniProt P29274).
T2 construct: host or cells: HEK293 cells (membrane homogenates)
T2 sequence (P29274 whole entry): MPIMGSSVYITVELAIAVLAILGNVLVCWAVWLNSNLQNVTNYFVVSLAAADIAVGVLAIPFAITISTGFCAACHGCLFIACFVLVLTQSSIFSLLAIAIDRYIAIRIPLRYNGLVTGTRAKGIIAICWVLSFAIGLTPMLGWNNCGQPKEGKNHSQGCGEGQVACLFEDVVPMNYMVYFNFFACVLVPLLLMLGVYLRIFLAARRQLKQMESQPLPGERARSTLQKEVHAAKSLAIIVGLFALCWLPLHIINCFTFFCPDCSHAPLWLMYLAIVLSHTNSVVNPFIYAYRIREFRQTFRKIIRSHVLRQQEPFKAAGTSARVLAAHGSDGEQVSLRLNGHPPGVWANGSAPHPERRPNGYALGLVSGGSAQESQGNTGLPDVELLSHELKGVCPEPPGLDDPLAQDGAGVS
Briefly: Adenosine receptor binding assay, radioligand competitive binding, [3H]CGS21680. To be noted: membrane homogenates from HEK293 cells transfected with A2AR, 6 nM [3H]CGS21680. As to the method:
as §1

For orientation: IC50 means the concentration at which inhibition is half-maximal. A higher IC50 goes with weaker potency. What is called Ki is a dissociation constant, usually derived from enzyme kinetics or from competition with a known ligand. The low end stands for tighter binding, the high end for weaker binding.

Some results are limits rather than exact numbers.

human A2A receptor (A2AR), sequence (P29274 whole entry): as above

For the molecule `CCCC(C(=O)N1CCN(c2ccc(OCCOC)cc2)CC1)n1ncc2c1nc(N)n1nc(-c3ccco3)nc21` (single isomer, unassigned) [Compound A5b, 2-(5-amino-2-(furan-2-yl)-7H-pyrazolo[4,3-e][1,2,4]triazolo[1,5-c]pyrimidin-7-yl)-1-(4-(4-(2-methoxyethoxy)phenyl)piperazin-1-yl)pentan-1-one], half-maximal inhibition in assay [1] (IC50) required 50 nM. Moreover, the Ki in assay [2] was found to be 310 nM; in assay [3], 6 nM.
Taken in the same sequence, the figures for `CCCCC(C(=O)N1CCN(c2ccc(OCCOC)cc2)CC1)n1ncc2c1nc(N)n1nc(-c3ccco3)nc21` (single isomer, unassigned) [Compound A10b, 2-(5-amino-2-(furan-2-yl)-7H-pyrazolo[4,3-e][1,2,4]triazolo[1,5-c]pyrimidin-7-yl)-1-(4-(4-(2-methoxyethoxy)phenyl)piperazin-1-yl)hexan-1-one] were 143 nM, 260 nM and 5.6 nM.
Taken in the same sequence, the figures for `COCCOc1ccc(N2CCN(C(=O)C(c3ccccc3)n3ncc4c3nc(N)n3nc(-c5ccco5)nc43)CC2)cc1` (single isomer, unassigned) [Compound A13a] were 26.9 nM, 190 nM and 6.2 nM.
Taken in the same sequence, the figures for `COCCOc1ccc(N2CCN(C(=O)C(CC(C)C)n3ncc4c3nc(N)n3nc(-c5ccco5)nc43)CC2)cc1` (single isomer, unassigned) [Compound A16a] were 0.3 nM, 57 nM and 1.5 nM.
In the case of `COCCOc1ccc(N2CCN(C(=O)C(CC(C)C)n3ncc4c3nc(N)n3nc(-c5ccco5)nc43)CC2)cc1` (single isomer, unassigned) [Compound A16b], the midpoint of inhibition in assay [1], the IC50, lay at 96.4 nM. The Ki in assay [2] is 770 nM; in assay [3], 15 nM.
For `CC(C)CC(C(=O)N1CCN(c2ccc(F)cc2F)CC1)n1ncc2c1nc(N)n1nc(-c3ccco3)nc21` (single isomer, unassigned) [Compound A22b] the same measures were 0.6 nM, 18 nM and 1.7 nM.
Taken in the same sequence, the figures for `CCCC(C(=O)N1CCN(c2ccc(OCCOC)cc2F)CC1)n1ncc2c1nc(N)n1nc(-c3ccco3)nc21` (single isomer, unassigned) [Compound A24a] were 1 nM, 120 nM and 1.4 nM.
For `CCCC(C(=O)N1CCN(c2ccc(OCCOC)cc2F)CC1)n1ncc2c1nc(N)n1nc(-c3ccco3)nc21` (single isomer, unassigned) [Compound A24b] the same measures were 78.8 nM, 1200 nM and 8.5 nM.
In assay [1], `CCCC(C(=O)N1CCN(c2ccc(OCCN(C)C)cc2)CC1)n1ncc2c1nc(N)n1nc(-c3ccco3)nc21` (single isomer, unassigned) [Compound A39b] returned an IC50 of 3.6 nM. Moreover, the Ki came to 79 nM in assay [2] and 2 nM in assay [3].
Taken in the same sequence, the figures for `COCCOc1ccc(N2CCN(C(=O)C(c3ccccc3F)n3ncc4c3nc(N)n3nc(-c5ccco5)nc43)CC2)cc1` (single isomer, unassigned) [Compound A43b] were 0.4 nM, 54 nM and 1.2 nM.
`Nc1nc2c(cnn2C(C(=O)N2CCc3ccccc3C2)c2ccccc2)c2nc(-c3ccco3)nn12` (single isomer, unassigned) [Compound B3b]: the IC50 in assay [1] worked out at 0.5 nM. For the same molecule, the results for the Ki in assay [2] and in assay [3] were 150 nM and 0.89 nM, respectively.
In assay [1], `COCCOc1ccc(N2CCN(C(=O)C(C)n3cc4c(nc(N)n5nc(-c6ccco6)nc45)n3)CC2)cc1` (single isomer, unassigned) [Compound C1a] returned an IC50 of 57.1 nM. Further, the Ki in assay [2] was under 0.5 nM; in assay [3], 6.2 nM.
For `COCCOc1ccc(N2CCN(C(=O)C(C)n3cc4c(nc(N)n5nc(-c6ccco6)nc45)n3)CC2)cc1` (single isomer, unassigned) [Compound C1b] the same measures were 12.7 nM, 10 nM and 2.5 nM.
Molecule `COCCOc1ccc(N2CCN(C(=O)[C@](C)(c3ccccc3)n3ncc4c3nc(N)n3nc(-c5ccco5)nc43)CC2)cc1` [Compound A63a, (S)-2-(5-amino-2-(furan-2-yl)-7H-pyrazolo[4,3-e][1,2,4]triazolo[1,5-c]pyrimidin-7-yl)-1-(4-(4-(2-methoxyethoxy)phenyl)piperazin-1-yl)-2-phenylpropan-1-one] returned an IC50 in assay [1] of 8 nM. Moreover, the Ki came to 1130 nM in assay [2] and 3.1 nM in assay [3].
For the molecule `CC(C(=O)N1CCN(c2ccc(OCCN(C)C)cc2)CC1)n1cc2c(nc(N)n3nc(-c4ccco4)nc23)n1` (centres unmarked) [Compound C19, 2-(5-amino-2-(furan-2-yl)-8H-pyrazolo[4,3-e][1,2,4]triazolo[1,5-c]pyrimidin-8-yl)-1-(4-(4-(2-(dimethylamino)ethoxy)phenyl)piperazin-1-yl)propan-1-one], in assay [1], the IC50 came out at 46.3 nM.
Still for that read-out and setting: to `COCCOc1ccc(N2CCN(C(=O)C(Cc3ccccc3)n3cc4c(nc(N)n5nc(-c6ccco6)nc45)n3)CC2)cc1` (centres unmarked) [Compound C20, 2-(5-amino-2-(furan-2-yl)-8H-pyrazolo[4,3-e][1,2,4]triazolo[1,5-c]pyrimidin-8-yl)-1-(4-(4-(2-methoxyethoxy)phenyl)piperazin-1-yl)-3-phenylpropan-1-one] belongs 2070 nM.
In assay [1], `CCCC(C(=O)N1CCN(c2ccc(F)cc2F)CC1)n1cc2c(nc(N)n3nc(-c4ccco4)nc23)n1` (centres unmarked) [Compound C21, 2-(5-amino-2-(furan-2-yl)-8H-pyrazolo[4,3-e][1,2,4]triazolo[1,5-c]pyrimidin-8-yl)-1-(4-(2,4-difluorophenyl)piperazin-1-yl)pentan-1-one] had an IC50 of 100 nM.
The same measure, in the same setting: to `COCCOCCOc1ccc(N2CCN(C(=O)C(C3CC3)n3cc4c(nc(N)n5nc(-c6ccco6)nc45)n3)CC2)cc1` (centres unmarked) [Compound C22, 2-(5-amino-2-(furan-2-yl)-8H-pyrazolo[4,3-e][1,2,4]triazolo[1,5-c]pyrimidin-8-yl)-2-cyclopropyl-1-(4-(4-(2-(2-methoxyethoxy)ethoxy)phenyl)piperazin-1-yl)ethan-1-one] belongs 12.8 nM; to `CC(C)CC(C(=O)N1CCN(c2ccc(F)cc2F)CC1)n1cc2c(nc(N)n3nc(-c4ccco4)nc23)n1` (centres unmarked) [Compound C23, 2-(5-amino-2-(furan-2-yl)-8H-pyrazolo[4,3-e][1,2,4]triazolo[1,5-c]pyrimidin-8-yl)-1-(4-(2,4-difluorophenyl)piperazin-1-yl)-4-methylpentan-1-one], 69.6 nM; to `CNCCOc1ccc(N2CCN(C(=O)C(C)n3cc4c(nc(N)n5nc(-c6ccco6)nc45)n3)CC2)cc1` (centres unmarked) [Compound C24, 2-(5-amino-2-(furan-2-yl)-8H-pyrazolo[4,3-e][1,2,4]triazolo[1,5-c]pyrimidin-8-yl)-1-(4-(4-(2-(methylamino)ethoxy)phenyl)piperazin-1-yl)propan-1-one], 35.5 nM.
The molecule `COCCOc1ccc(N2CCN(C(=O)C(C)(c3ccccc3)n3cc4c(nc(N)n5nc(-c6ccco6)nc45)n3)CC2)cc1` (centres unmarked) [Compound C25, 2-(5-amino-2-(furan-2-yl)-8H-pyrazolo[4,3-e][1,2,4]triazolo[1,5-c]pyrimidin-8-yl)-1-(4-(4-(2-methoxyethoxy)phenyl)piperazin-1-yl)-2-phenylpropan-1-one] showed an IC50 in assay [1] of 21.7 nM.
Turning to `COCCOc1ccc(N2CCN(CCn3ncc4c3nc(N)n3nc(-c5ccco5)nc43)CC2)cc1` [Preladenant, preladenant, reference compound], affinity in assay [2] was put at a Ki of 337 nM.
